Results from US10336732B2, “1-heterocyclyl isochromanyl compounds and analogs for treating CNS disorders” (Sunovion Pharmaceuticals Inc., priority 2015, dated 2019).

System: mice
Experiment: Neuropharmacological assay (SmartCube), behavioral signature of compound-treated mice
Assay type: in vivo
Details: i.p. 15 min before behavioral test, most efficacious dose(s) of 3 doses
In short: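 Mice received compound i.p. in NMP/PEG/propylene glycol vehicle at 3 doses, 15 min before testing. Video-captured behavior was algorithmically compared with a reference-drug signature database.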

Compound | AD: ADHD (probability that behavioral signature matches class) | AG: analgesic (probability that behavioral signature matches class) | AX: anxiolytic (probability that behavioral signature matches class) | CE: cognitive enhancer (probability that behavioral signature matches class) | DP: anti-depressant (probability that behavioral signature matches class) | HA: hallucinogen (probability that behavioral signature matches class) | MS: mood stabilizer (probability that behavioral signature matches class) | PS: anti-psychotic (probability that behavioral signature matches class) | SD: sedative hypnotic (probability that behavioral signature matches class) | UN: uncharacterized CNS activity (probability that behavioral signature matches class)
FC1(F)CN[C@H]([C@H]2OCCc3ccccc32)C1 [Compound I-63, (S)-4,4-difluoro-2-((S)-isochroman-1-yl)pyrrolidine] | + (LOQ ≤ + <5%) | + (LOQ ≤ + <5%) | + (LOQ ≤ + <5%) | + (LOQ ≤ + <5%) | + (LOQ ≤ + <5%) | + (LOQ ≤ + <5%) | + (LOQ ≤ + <5%) | + (LOQ ≤ + <5%) | + (LOQ ≤ + <5%) | + (LOQ ≤ + <5%)
FC1(F)CN[C@H]([C@@H]2OCCc3ccccc32)C1 [Compound I-64, (S)-4,4-difluoro-2-((R)-isochroman-1-yl)pyrrolidine] | + (LOQ ≤ + <5%) | + (LOQ ≤ + <5%) | ++ (5% ≤ ++ <25%) | + (LOQ ≤ + <5%) | + (LOQ ≤ + <5%) | + (LOQ ≤ + <5%) | + (LOQ ≤ + <5%) | + (LOQ ≤ + <5%) | + (LOQ ≤ + <5%) | + (LOQ ≤ + <5%)
CC1(C)Cc2ccccc2[C@@H]([C@@H]2CCCN2)O1 [Compound I-65, (S)-2-((S)-3,3-dimethylisochroman-1-yl)pyrrolidine] | + (LOQ ≤ + <5%) | +++ (25% ≤ +++ <50%) | ++ (5% ≤ ++ <25%) | ++ (5% ≤ ++ <25%) | ++ (5% ≤ ++ <25%) | + (LOQ ≤ + <5%) | + (LOQ ≤ + <5%) | ++ (5% ≤ ++ <25%) | ++ (5% ≤ ++ <25%) | + (LOQ ≤ + <5%)
CC1(C)Cc2ccccc2[C@H]([C@@H]2CCCN2)O1 [Compound I-66, (S)-2-((R)-3,3-dimethylisochroman-1-yl)pyrrolidine] | + (LOQ ≤ + <5%) | ++ (5% ≤ ++ <25%) | ++ (5% ≤ ++ <25%) | ++ (5% ≤ ++ <25%) | ++ (5% ≤ ++ <25%) | + (LOQ ≤ + <5%) | + (LOQ ≤ + <5%) | +++ (25% ≤ +++ <50%) | + (LOQ ≤ + <5%) | ++ (5% ≤ ++ <25%)
CC1(C)Cc2ccccc2[C@@H]([C@H]2CCCN2)O1 [Compound I-67, (R)-2-((S)-3,3-dimethylisochroman-1-yl)pyrrolidine] | + (LOQ ≤ + <5%) | + (LOQ ≤ + <5%) | + (LOQ ≤ + <5%) | + (LOQ ≤ + <5%) | + (LOQ ≤ + <5%) | + (LOQ ≤ + <5%) | + (LOQ ≤ + <5%) | + (LOQ ≤ + <5%) | + (LOQ ≤ + <5%) | + (LOQ ≤ + <5%)
CC1(C)Cc2ccccc2[C@H]([C@H]2CCCN2)O1 [Compound I-68, (R)-2-((R)-3,3-dimethylisochroman-1-yl)pyrrolidine] | + (LOQ ≤ + <5%) | + (LOQ ≤ + <5%) | + (LOQ ≤ + <5%) | + (LOQ ≤ + <5%) | + (LOQ ≤ + <5%) | + (LOQ ≤ + <5%) | + (LOQ ≤ + <5%) | + (LOQ ≤ + <5%) | + (LOQ ≤ + <5%) | + (LOQ ≤ + <5%)
CN1CCC[C@H]1[C@@H]1OCCc2cc(F)ccc21 [Compound I-69, (S)-2-((R)-6-fluoroisochroman-1-yl)-1-methylpyrrolidine] | + (LOQ ≤ + <5%) | +++ (25% ≤ +++ <50%) | ++ (5% ≤ ++ <25%) | ++ (5% ≤ ++ <25%) | ++ (5% ≤ ++ <25%) | + (LOQ ≤ + <5%) | + (LOQ ≤ + <5%) | ++ (5% ≤ ++ <25%) | + (LOQ ≤ + <5%) | + (LOQ ≤ + <5%)
CCN1CCC[C@H]1[C@@H]1OCCc2cc(F)ccc21 [Compound I-70, (S)-1-ethyl-2-((R)-6-fluoroisochroman-1-yl)pyrrolidine] | + (LOQ ≤ + <5%) | ++ (5% ≤ ++ <25%) | +++ (25% ≤ +++ <50%) | + (LOQ ≤ + <5%) | ++ (5% ≤ ++ <25%) | + (LOQ ≤ + <5%) | + (LOQ ≤ + <5%) | + (LOQ ≤ + <5%) | + (LOQ ≤ + <5%) | + (LOQ ≤ + <5%)
c1ccc2c(c1)CCO[C@@H]2[C@@H]1CCCCN1 [Compound I-71, (S)-2-((S)-isochroman-1-yl)piperidine] | + (LOQ ≤ + <5%) | + (LOQ ≤ + <5%) | +++ (25% ≤ +++ <50%) | ++ (5% ≤ ++ <25%) | ++ (5% ≤ ++ <25%) | + (LOQ ≤ + <5%) | ++ (5% ≤ ++ <25%) | ++ (5% ≤ ++ <25%) | + (LOQ ≤ + <5%) | + (LOQ ≤ + <5%)
c1ccc2c(c1)CCO[C@H]2[C@@H]1CCCCN1 [Compound I-72, (S)-2-((R)-isochroman-1-yl)piperidine] | + (LOQ ≤ + <5%) | ++ (5% ≤ ++ <25%) | ++ (5% ≤ ++ <25%) | + (LOQ ≤ + <5%) | + (LOQ ≤ + <5%) | + (LOQ ≤ + <5%) | + (LOQ ≤ + <5%) | + (LOQ ≤ + <5%) | + (LOQ ≤ + <5%) | +++ (25% ≤ +++ <50%)
Fc1ccc2c(c1)CCO[C@@H]2[C@@H]1CCCCN1 [Compound I-73, (S)-2-((S)-6-fluoroisochroman-1-yl)piperidine] | + (LOQ ≤ + <5%) | ++ (5% ≤ ++ <25%) | ++ (5% ≤ ++ <25%) | ++ (5% ≤ ++ <25%) | ++ (5% ≤ ++ <25%) | + (LOQ ≤ + <5%) | ++ (5% ≤ ++ <25%) | + (LOQ ≤ + <5%) | + (LOQ ≤ + <5%) | +++ (25% ≤ +++ <50%)

Same assay, conditions: i.p. 15 min before behavioral test, most efficacious dose(s) of 3 doses

Compound | XG: anxiogenic (probability that behavioral signature matches class)
FC1(F)CN[C@H]([C@H]2OCCc3ccccc32)C1 [Compound I-63, (S)-4,4-difluoro-2-((S)-isochroman-1-yl)pyrrolidine] | + (LOQ ≤ + <5%)
FC1(F)CN[C@H]([C@@H]2OCCc3ccccc32)C1 [Compound I-64, (S)-4,4-difluoro-2-((R)-isochroman-1-yl)pyrrolidine] | + (LOQ ≤ + <5%)
CC1(C)Cc2ccccc2[C@@H]([C@@H]2CCCN2)O1 [Compound I-65, (S)-2-((S)-3,3-dimethylisochroman-1-yl)pyrrolidine] | + (LOQ ≤ + <5%)
CC1(C)Cc2ccccc2[C@H]([C@@H]2CCCN2)O1 [Compound I-66, (S)-2-((R)-3,3-dimethylisochroman-1-yl)pyrrolidine] | + (LOQ ≤ + <5%)
CC1(C)Cc2ccccc2[C@@H]([C@H]2CCCN2)O1 [Compound I-67, (R)-2-((S)-3,3-dimethylisochroman-1-yl)pyrrolidine] | + (LOQ ≤ + <5%)
CC1(C)Cc2ccccc2[C@H]([C@H]2CCCN2)O1 [Compound I-68, (R)-2-((R)-3,3-dimethylisochroman-1-yl)pyrrolidine] | + (LOQ ≤ + <5%)
CN1CCC[C@H]1[C@@H]1OCCc2cc(F)ccc21 [Compound I-69, (S)-2-((R)-6-fluoroisochroman-1-yl)-1-methylpyrrolidine] | + (LOQ ≤ + <5%)
CCN1CCC[C@H]1[C@@H]1OCCc2cc(F)ccc21 [Compound I-70, (S)-1-ethyl-2-((R)-6-fluoroisochroman-1-yl)pyrrolidine] | + (LOQ ≤ + <5%)
c1ccc2c(c1)CCO[C@@H]2[C@@H]1CCCCN1 [Compound I-71, (S)-2-((S)-isochroman-1-yl)piperidine] | + (LOQ ≤ + <5%)
c1ccc2c(c1)CCO[C@H]2[C@@H]1CCCCN1 [Compound I-72, (S)-2-((R)-isochroman-1-yl)piperidine] | ++ (5% ≤ ++ <25%)
Fc1ccc2c(c1)CCO[C@@H]2[C@@H]1CCCCN1 [Compound I-73, (S)-2-((S)-6-fluoroisochroman-1-yl)piperidine] | + (LOQ ≤ + <5%)
